Experimental data as given in ChEMBL document CHEMBL3045049, “Synthesis and antiviral activity of new 3-methyl-1,5-diphenyl-1H-pyrazole derivatives” (Med Chem Res, 2012).
Activity calls are given as the source filed them. The calls are words filed in the database; no cut-off is given here.

Key:
Human alphaherpesvirus 1 = test: Antiviral activity against Human herpesvirus 1 infected African green monkey Vero cells after 66 hr by viral plaque reduction assay; type: functional; parameters: concentration or dose not given beside the values
Vero = test: Cytotoxicity against Chlorocebus aethiops (African green monkey) Vero cells after 24 hr; type: cell-based; details: chlorocebus sabaeus

Row | Structure (SMILES) | Activity (Human alphaherpesvirus 1) | Activity (Vero)
1 | COc1ccc(C2=NNC(c3c(C)nn(-c4ccccc4)c3-c3ccccc3)C2)cc1 (centres undefined) | 22% | –
2 | COc1ccc(C(=O)/C=C/c2c(C)nn(-c3ccccc3)c2-c2ccccc2)cc1 | inactive | Toxic
3 | COc1ccc(OC)c(C(=O)/C=C/c2c(C)nn(-c3ccccc3)c2-c2ccccc2)c1 | 17% | –
4 | Cc1nn(-c2ccccc2)c(-c2ccccc2)c1/C=C/C(=O)c1ccc(N)cc1 | inactive | Toxic
5 | COc1ccc(OC)c(C2=NN(c3ccccc3)C(c3c(C)nn(-c4ccccc4)c3-c3ccccc3)C2)c1 (centres undefined) | inactive | Toxic
6 | Cc1ccc(C2=NNC(c3c(C)nn(-c4ccccc4)c3-c3ccccc3)C2)cc1 (centres undefined) | 22% | –
7 | Cc1nn(-c2ccccc2)c(-c2ccccc2)c1C1CC(c2ccc(N)cc2)=NO1 (centres undefined) | 10% | –
8 | Cc1nn(-c2ccccc2)c(-c2ccccc2)c1/C=C/C(=O)c1ccc(Br)cc1 | 22% | –
9 | COc1ccc(C2=NN(c3ccccc3)C(c3c(C)nn(-c4ccccc4)c3-c3ccccc3)C2)cc1 (centres undefined) | inactive | Toxic
10 | Cc1nn(-c2ccccc2)c(-c2ccccc2)c1-c1cc(-c2ccc(Br)cc2)nc(N2C(=O)c3ccccc3C2=O)c1C#N | 22% | –
11 | Cc1nn(-c2ccccc2)c(-c2ccccc2)c1C1CC(c2ccc(Br)cc2)=NO1 (centres undefined) | 10% | –
12 | Cc1nn(-c2ccccc2)c(-c2ccccc2)c1-c1cc(-c2ccc(Br)cc2)[nH]c(=O)c1C#N | 52% | –
13 | COc1ccc(C2=NOC(c3c(C)nn(-c4ccccc4)c3-c3ccccc3)C2)cc1 (centres undefined) | inactive | Toxic
14 | Cc1ccc(C2=NOC(c3c(C)nn(-c4ccccc4)c3-c3ccccc3)C2)cc1 (centres undefined) | 53% | –
15 | Cc1nn(-c2ccccc2)c(-c2ccccc2)c1-c1cc(-c2ccc(Br)cc2)nc2nc(/C=C/C(=O)O)[nH]c(=O)c12 | 10% | –
16 | CSc1cccc(Nc2nc(-c3ccc(C)cc3)cc(-c3c(C)nn(-c4ccccc4)c3-c3ccccc3)n2)c1 | 52% | –
17 | Cc1nn(-c2ccccc2)c(-c2ccccc2)c1C1CC(c2ccc(Br)cc2)=NN1c1ccccc1 (centres undefined) | inactive | Toxic
18 | Cc1nn(-c2ccccc2)c(-c2ccccc2)c1C1CC(c2ccc(N)cc2)=NN1c1ccccc1 (centres undefined) | inactive | Toxic
19 | COc1ccc(OC)c(C2=NNC(c3c(C)nn(-c4ccccc4)c3-c3ccccc3)C2)c1 (centres undefined) | 22% | –
20 | Cc1ccc(C(=O)/C=C/c2c(C)nn(-c3ccccc3)c2-c2ccccc2)cc1 | 10% | –
21 | Cc1nn(-c2ccccc2)c(-c2ccccc2)c1/C=C/C(=O)c1cccc(N)c1 | 10% | –
22 | Cc1nn(-c2ccccc2)c(-c2ccccc2)c1-c1cc(-c2ccc(Br)cc2)nc(N)c1C#N | 51% | –
23 | Nc1nc2c(ncn2COCCO)c(=O)[nH]1 [ACYCLOVIR] | 100% | –
24 | Cc1nn(-c2ccccc2)c(-c2ccccc2)c1C1CC(c2ccc(Br)cc2)=NN1 (centres undefined) | 18% | –
25 | Cc1nn(-c2ccccc2)c(-c2ccccc2)c1C1CC(c2cccc(N)c2)=NO1 (centres undefined) | 22% | –
26 | Cc1nn(-c2ccccc2)c(-c2ccccc2)c1C1CC(c2cccc(N)c2)=NN1c1ccccc1 (centres undefined) | 11% | –
27 | COc1ccc(O)c(C2=NOC(c3c(C)nn(-c4ccccc4)c3-c3ccccc3)C2)c1 (centres undefined) | inactive | Toxic
28 | Cc1nn(-c2ccccc2)c(-c2ccccc2)c1C1CC(c2ccc(N)cc2)=NN1 (centres undefined) | 10% | –
29 | Cc1nn(-c2ccccc2)c(-c2ccccc2)c1C1CC(c2cccc(N)c2)=NN1 (centres undefined) | 15% | –
30 | Cc1ccc(C2=NN(c3ccccc3)C(c3c(C)nn(-c4ccccc4)c3-c3ccccc3)C2)cc1 (centres undefined) | inactive | Toxic
